The source of these data is patent US20250235460A1, “COMBINATION THERAPY USING GLUCOSE-DEPENDENT INSULINOTROPIC POLYPEPTIDE RECEPTOR ANTAGONIST COMPOUNDS AND GLP-1 RECEPTOR AGONIST COMPOUNDS” (Pfizer Inc., priority 2024, published 2025).

The target in assay [1] is human GLP-1R (Homo sapiens, UniProt P43220, G168S). As to the kind of experiment: CHO GLP-1R Clone H6 cAMP HTRF agonist assay (Assay 1, high receptor density). The format is cell-based. The settings on record: for EC50: geometric mean; for Emax: read-out: Assay 1 Emax (%). Summed up: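 Two significant figures are used throughout. Each EC50 is the geometric mean of its replicates, and each Emax is the arithmetic mean.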

Assay [2] deals with human GLP-1R (Homo sapiens, UniProt P43220, L260F). Briefly: CHO GLP-1R Clone C6 cAMP HTRF agonist assay (Assay 2, low receptor density). Format: cell-based. The conditions noted are these: for EC50: geometric mean. The source says: In Table 5 and Table 6, assay data are presented to two (2) significant figures as the geometric mean (EC50s) and arithmetic mean (Emax) based on the number of replicates listed (Number). A blank cell means there was no data for that Example or the Emax was not calculated.
(TR-FRET usually uses a lanthanide donor and a delayed reading to cut background.)

[3] abbreviates: CHO GLP-1R clone H6, arithmetic mean, relative to saturating GLP-1 (1 μM).
Setting [4] is: CHO GLP-1R clone C6, arithmetic mean, relative to saturating GLP-1 (1 μM).

Counter-ions that a name gives are not always drawn.

Chain of human GLP-1R (Homo sapiens, UniProt P43220, G168S) (P43220 24-463 G168S): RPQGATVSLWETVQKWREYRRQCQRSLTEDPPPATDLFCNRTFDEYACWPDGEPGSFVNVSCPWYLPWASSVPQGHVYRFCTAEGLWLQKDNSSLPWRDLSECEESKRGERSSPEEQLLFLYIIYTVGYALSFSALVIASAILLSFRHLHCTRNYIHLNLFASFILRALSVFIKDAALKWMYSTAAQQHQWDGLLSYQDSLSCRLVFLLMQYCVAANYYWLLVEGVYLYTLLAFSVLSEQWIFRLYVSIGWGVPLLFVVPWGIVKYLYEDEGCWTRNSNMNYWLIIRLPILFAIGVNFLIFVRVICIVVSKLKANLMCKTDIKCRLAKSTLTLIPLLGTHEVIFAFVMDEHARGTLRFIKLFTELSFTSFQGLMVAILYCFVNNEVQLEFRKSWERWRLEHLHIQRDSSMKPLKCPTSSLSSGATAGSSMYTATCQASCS
Chain of human GLP-1R (Homo sapiens, UniProt P43220, L260F) (P43220 24-463 L260F): as the sequence (P43220 24-463 G168S) above, with S145G, L237F counted along it

With `N#Cc1ccc(COc2nc(C3CCN(Cc4nc5ccc(C(=O)O)cc5n4C[C@@H]4CCO4)CC3)ccc2F)cc1` [Compound 127B, 2-[(4-{6-[(4-cyanobenzyl)oxy]-5-fluoropyridin-2-yl}piperidin-1-yl)methyl]-1-[(2S)-oxetan-2-ylmethyl]-1H-benzimidazole-6-carboxylic acid], the EC50 (commonly the midpoint of the concentration-response curve) in assay [1] (CHO GLP-1R clone H6, cAMP HTRF) was 4.9 nM; in assay [2] (CHO GLP-1R clone C6, cAMP HTRF), 75 nM. For the same compound, the Emax (commonly the greatest response seen or fitted, relative to the assay's reference) in assay [1] (setting [3]) is 77%; in assay [2] (setting [4]) it was 83%.

Regarding `O=C(O)c1ccc2nc(CN3CCC(c4cccc(OCc5ccc(Cl)cc5F)n4)CC3)n(C[C@@H]3CCO3)c2c1` [Compound 107B, 2-[(4-{6-[(4-chloro-2-fluorobenzyl)oxy]pyridin-2-yl}piperidin-1-yl)methyl]-1-[(2S)-oxetan-2-ylmethyl]-1H-benzimidazole-6-carboxylic acid], the 50% effective concentration (EC50) in assay [1] (CHO GLP-1R clone H6, cAMP HTRF) worked out at 81 nM; in assay [2] (CHO GLP-1R clone C6, cAMP HTRF), 910 nM. In addition, the figures for the Emax in assay [1] (setting [3]) and in assay [2] (setting [4]) were 77% and 94%, respectively.

Take `Cn1c(CN2CCC(c3cccc(OCc4ccc(OC(F)(F)F)cc4)n3)CC2)nc2ccc(C(=O)O)cc21` [Compound 228B, 1-methyl-2-{[4-(6-{[4-(trifluoromethoxy)benzyl]oxy}pyridin-2-yl)piperidin-1-yl]methyl}-1H-benzimidazole-6-carboxylic acid]: the EC50 amounted to 6 nM in assay [1] (CHO GLP-1R clone H6, cAMP HTRF) and 99 nM in assay [2] (CHO GLP-1R clone C6, cAMP HTRF). Further, the figures for the Emax in assay [1] (setting [3]) and in assay [2] (setting [4]) were 73% and 81%, respectively.

`CC[C@H]1CN(c2cccc(OCc3ccc(Cl)cc3F)n2)CCN1Cc1nc2ccc(C(=O)O)cc2n1CCOC` [Compound 353B, 2-{[(2S)-4-{6-[(4-chloro-2-fluorobenzyl)oxy]pyridin-2-yl}-2-ethylpiperazin-1-yl]methyl}-1-(2-methoxyethyl)-1H-benzimidazole-6-carboxylic acid]: the EC50 in assay [1] (CHO GLP-1R clone H6, cAMP HTRF) came to 5.6 nM; in assay [2] (CHO GLP-1R clone C6, cAMP HTRF), 200 nM. For the same compound, the Emax in assay [1] (setting [3]) is 80%; in assay [2] (setting [4]), 89%.

Take `C[C@H]1CN(c2cccc(OCc3ccc(C#N)cc3)n2)CCN1Cc1nc2ccc(C(=O)O)cc2n1C[C@@H]1CCO1` [Compound 138B, 2-{[(2S)-4-{6-[(4-cyanobenzyl)oxy]pyridin-2-yl}-2-methylpiperazin-1-yl]methyl}-1-[(2S)-oxetan-2-ylmethyl]-1H-benzimidazole-6-carboxylic acid]: the “Assay 1 Emax (%)” value in assay [1] (setting [3]) was 95%. In assay [2] (setting [4]), the “Assay 2 Emax (%)” value stood at 89%.

Regarding `CC1(Cn2c(CN3CCC(c4cccc(OCc5ccc(Cl)cc5F)n4)CC3)nc3ccc(C(=O)O)cc32)COC1` [Compound 251B, 2-[(4-{6-[(4-chloro-2-fluorobenzyl)oxy]pyridin-2-yl}piperidin-1-yl)methyl]-1-[(3-methyloxetan-3-yl)methyl]-1H-benzimidazole-6-carboxylic acid], the EC50 in assay [1] (CHO GLP-1R clone H6, cAMP HTRF) was 0.59 nM; in assay [2] (CHO GLP-1R clone C6, cAMP HTRF) it was 6.8 nM. Besides, the Emax turned out to be 83% in assay [1] (setting [3]) and 93% in assay [2] (setting [4]).

Consider `COCCn1c(CN2CCC(c3cccc(OCc4ccc(Cl)cc4F)n3)CC2)nc2cnc(C(=O)O)cc21` [Compound 205B, 2-[(4-{6-[(4-chloro-2-fluorobenzyl)oxy]pyridin-2-yl}piperidin-1-yl)methyl]-1-(2-methoxyethyl)-1H-imidazo[4,5-c]pyridine-6-carboxylic acid], for which the EC50 came to 5.7 nM in assay [1] (CHO GLP-1R clone H6, cAMP HTRF) and 100 nM in assay [2] (CHO GLP-1R clone C6, cAMP HTRF). Moreover, the Emax in assay [1] (setting [3]) was determined as 67%; in assay [2] (setting [4]), 79%.

`O=C(O)c1ccc2nc(CN3CCC(c4cccc(OCc5ccc(F)cc5F)n4)CC3)n(Cc3cnco3)c2c1` [Compound 157B, 2-[(4-{6-[(2,4-difluorobenzyl)oxy]pyridin-2-yl}piperidin-1-yl)methyl]-1-(1,3-oxazol-5-ylmethyl)-1H-benzimidazole-6-carboxylic acid]: the EC50 was 8.5 nM in assay [1] (CHO GLP-1R clone H6, cAMP HTRF) and 220 nM in assay [2] (CHO GLP-1R clone C6, cAMP HTRF). Moreover, the Emax was found to be 88% in assay [1] (setting [3]) and 110% in assay [2] (setting [4]).

For `COCCn1c(CN2CCC(c3cccc(OCc4ccc(C#N)cc4)n3)CC2)nc2cc(F)c(C(=O)O)cc21` [Compound 211B, 2-[(4-{6-[(4-cyanobenzyl)oxy]pyridin-2-yl}piperidin-1-yl)methyl]-5-fluoro-1-(2-methoxyethyl)-1H-benzimidazole-6-carboxylic acid], the EC50 in assay [1] (CHO GLP-1R clone H6, cAMP HTRF) was 50 nM; in assay [2] (CHO GLP-1R clone C6, cAMP HTRF) it was 870 nM. Besides, the Emax came out at 81% in assay [1] (setting [3]) and 83% in assay [2] (setting [4]).

Consider `COCCn1c(C2CC23CCC(c2cccc4c2OC(C)(c2ccc(Cl)cc2F)O4)CC3)nc2ccc(C(=O)O)cc21` (centres unmarked) [Compound 29B, 2-{6-[2-(4-chloro-2-fluorophenyl)-2-methyl-1,3-benzodioxol-4-yl]-6-azaspiro[2.5]oct-1-yl}-1-(2-methoxyethyl)-1H-benzimidazole-6-carboxylic acid, DIAST-Z2, trifluoroacetate salt], for which the EC50 in assay [1] (CHO GLP-1R clone, cAMP HTRF) is above 20000 nM; in assay [2] (CHO GLP-1R clone, low receptor density, cAMP HTRF), above 20000 nM.

`COCCn1c(CN2CCN(c3cccc(OCc4ccc(Cl)cc4F)n3)C[C@@H]2C(C)C)nc2ccc(C(=O)O)cc21` [Compound 351B, 2-{[(2S)-4-{6-[(4-chloro-2-fluorobenzyl)oxy]pyridin-2-yl}-2-(propan-2-yl)piperazin-1-yl]methyl}-1-(2-methoxyethyl)-1H-benzimidazole-6-carboxylic acid]: the EC50 in assay [1] (CHO GLP-1R clone H6, cAMP HTRF) amounted to 5.2 nM; in assay [2] (CHO GLP-1R clone C6, cAMP HTRF) it was 120 nM. In addition, the Emax came to 66% in assay [1] (setting [3]) and 80% in assay [2] (setting [4]).

`CN1CCCC1CCn1c(CN2CCC(c3cccc(OCc4ccc(Cl)cc4F)n3)CC2)nc2ccc(C(=O)O)cc21` (centres unmarked) [Compound 284B, 2-[(4-{6-[(4-chloro-2-fluorobenzyl)oxy]pyridin-2-yl}piperidin-1-yl)methyl]-1-[2-(1-methylpyrrolidin-2-yl)ethyl]-1H-benzimidazole-6-carboxylic acid]: the EC50 came out at 18 nM in assay [1] (CHO GLP-1R clone H6, cAMP HTRF) and 270 nM in assay [2] (CHO GLP-1R clone C6, cAMP HTRF). Besides, the Emax was determined as 82% in assay [1] (setting [3]) and 83% in assay [2] (setting [4]).

For `O=C(O)c1ccc2nc(CN3CCC(c4cccc(OCc5ccc(Cl)cc5F)n4)CC3)n(Cc3cnco3)c2c1` [Compound 145B, 2-[(4-{6-[(4-chloro-2-fluorobenzyl)oxy]pyridin-2-yl}piperidin-1-yl)methyl]-1-(1,3-oxazol-5-ylmethyl)-1H-benzimidazole-6-carboxylic acid], the 50% effective concentration (EC50) in assay [1] (CHO GLP-1R clone H6, cAMP HTRF) came out at 120 nM; in assay [2] (CHO GLP-1R clone C6, cAMP HTRF), 2200 nM. For the same compound, the Emax in assay [1] (setting [3]) stood at 76%; in assay [2] (setting [4]), 83%.

As for `O=C(O)c1ccc2nc(CN3CCC(c4cccc(OCc5ccc(Cl)cc5F)n4)CC3)n(CCN3CCCC3=O)c2c1` [Compound 239B, 2-[(4-{6-[(4-chloro-2-fluorobenzyl)oxy]pyridin-2-yl}piperidin-1-yl)methyl]-1-[2-(2-oxopyrrolidin-1-yl)ethyl]-1H-benzimidazole-6-carboxylic acid], the EC50 in assay [1] (CHO GLP-1R clone H6, cAMP HTRF) was 1.2 nM; in assay [2] (CHO GLP-1R clone C6, cAMP HTRF), 24 nM. Further, the Emax in assay [1] (setting [3]) came out at 84%; in assay [2] (setting [4]), 98%.

Consider `COCCn1c(CN2CCC(c3cccc(OCc4ccc(C#N)c(C)c4)n3)CC2)nc2ccc(C(=O)O)cc21` [Compound 218B, 2-((4-(6-((4-cyano-3-methylbenzyl)oxy)pyridin-2-yl)piperidin-1-yl)methyl)-1-(2-methoxyethyl)-1H-benzo[d]imidazole-6-carboxylic acid], for which the EC50 in assay [1] (CHO GLP-1R clone H6, cAMP HTRF) stood at 1.5 nM; in assay [2] (CHO GLP-1R clone C6, cAMP HTRF), 29 nM. For the same compound, the Emax in assay [2] (setting [4]) worked out at 95%.

Regarding `Cn1cncc1Cn1c(CN2CCN(c3cccc(OCc4ccc(C#N)cc4F)n3)CC2)nc2ccc(C(=O)O)cc21` [Compound 154B, 2-[(4-{6-[(4-cyano-2-fluorobenzyl)oxy]pyridin-2-yl}piperazin-1-yl)methyl]-1-[(1-methyl-1H-imidazol-5-yl)methyl]-1H-benzimidazole-6-carboxylic acid], the EC50 in assay [1] (CHO GLP-1R clone H6, cAMP HTRF) was 6 nM; in assay [2] (CHO GLP-1R clone C6, cAMP HTRF), 78 nM. For the same compound, the Emax in assay [1] (setting [3]) is 80%; in assay [2] (setting [4]), 88%.

In the case of `Cn1c(CN2CCC(c3cccc(OCc4cccc(F)c4F)n3)CC2)nc2ccc(C(=O)O)cc21` [Compound 227B, 2-[(4-{6-[(2,3-difluorobenzyl)oxy]pyridin-2-yl}piperidin-1-yl)methyl]-1-methyl-1H-benzimidazole-6-carboxylic acid], the concentration for a half-maximal effect (EC50) was 4 nM in assay [1] (CHO GLP-1R clone H6, cAMP HTRF) and 48 nM in assay [2] (CHO GLP-1R clone C6, cAMP HTRF). Besides, the Emax in assay [1] (setting [3]) was 64%; in assay [2] (setting [4]), 79%.

On to `COCCn1c(CN2CCC(c3cccc(OCc4ccc(Cl)cc4F)n3)CC2)nc2ccc(C(=O)O)c(F)c21` [Compound 170B, 2-[(4-{6-[(4-chloro-2-fluorobenzyl)oxy]pyridin-2-yl}piperidin-1-yl)methyl]-7-fluoro-1-(2-methoxyethyl)-1H-benzimidazole-6-carboxylic acid], for which the EC50 in assay [1] (CHO GLP-1R clone H6, cAMP HTRF) was found to be 79 nM; in assay [2] (CHO GLP-1R clone C6, cAMP HTRF), 4000 nM. The Emax came out at 81% in assay [1] (setting [3]) and 75% in assay [2] (setting [4]).

Turning to `O=C(O)c1ccc2nc(CN3CCC(c4cccc(OCc5ccc(Cl)cc5F)n4)CC3)n(C[C@@H]3CCCO3)c2c1` [Compound 116B, 2-[(4-{6-[(4-chloro-2-fluorobenzyl)oxy]pyridin-2-yl}piperidin-1-yl)methyl]-1-[(2S)-tetrahydrofuran-2-ylmethyl]-1H-benzimidazole-6-carboxylic acid], the EC50 was 930 nM in assay [1] (CHO GLP-1R clone H6, cAMP HTRF) and 9000 nM in assay [2] (CHO GLP-1R clone C6, cAMP HTRF). The results for the Emax in assay [1] (setting [3]) and in assay [2] (setting [4]) were 86% and 100%, respectively.
